# Tested on: patients with hypercholesterolemia at high CV risk not adequately controlled with atorvastatin (20 mg or 40 mg)
# Test: Example 2: randomized, double-blind trial, lipid efficacy of mAb316P add-on to atorvastatin vs EZE add-on, atorvastatin dose doubling or switch to rosuvastatin
# Type: in vivo, human
# Details: for reduced LDL-C levels by: week 24, add-on mAb316P
# Method: The present study was a randomized, double-blind, active-comparator, parallel-group study in patients at high CV risk with non-FH or heFH who are not adequately controlled with atorvastatin (20 mg or 40 mg) with or without other lipid-modifying therapy (LMT) (excluding EZE). The study design is illustrated in FIG. 1. Patients who entered the study were taking either atorvastatin 20 mg or atorvastatin 40 mg. The former patients were randomized to 1 of 3 treatment arms (arms 1 to 3); the latter patients were randomized to 1 of 4 treatment arms (arms 4 to 7). The treatment arms are as follows:
# (1) mAb316P+atorvastatin 20 mg+placebo-EZE; (2) Placebo-mAb316P+atorvastatin 40 mg+placebo-EZE; and (3) Placebo-mAb316P+atorvastatin 20 mg+EZE 10 mg.
# (4) mAb316P+atorvastatin 40 mg+placebo-EZE; (5) Placebo-mAb316P+atorvastatin 80 mg+placebo-EZE; (6). Placebo-mAb316P+rosuvastatin 40 mg+placebo-EZE; and (7) Placebo-mAb316P+atorvastatin 40 mg+EZE 10 mg.
# (B) a double-blind treatment period of 24 weeks. Each patient received a SC injection Q2W (mAb316P or placebo-mAb316P) and was administered (or instructed to take) 2 oral blinded medications daily (a statin [atorvastatin or rosuvastatin] and EZE or placebo-EZE). The first injection of mAb316P or placebo-mAb316P was administered at the clinical site on day 1, after study assessments were completed, and as soon as possible after the patient was randomized into the study. The patient/caregiver administered subsequent injections outside of the clinic according to the dosing schedule. On days where the clinic study visit coincided with dosing, the dose of study drugs (injectable and oral) were administered after all study assessments had been performed and all laboratory samples collected. The last dose of mAb316P or placebo-mAb316P was administered at week 22. The last dose of daily oral study drugs was administered at week 24. At week 12, based on their baseline CV risk, certain patients randomized to mAb316P in a blinded manner, had their dose increased as follows:
# Each patient received a subcutaneous (SC) injection once every two weeks (Q2W) (mAb316P or placebo-mAb316P) and took 2 oral blinded medications daily (a statin [atorvastatin or rosuvastatin] and EZE or placebo-EZE).
# The injectable study treatment was a single SC injection of 1 mL for a 75 mg or 150 mg dose of mAb316P or placebo-mAb316P provided in an auto-injector, administered in the abdomen, thigh, or outer area of the upper arm. The first injection of study drug was administered at the clinical site, as soon as possible after the patient was randomized into the study. The patient was monitored at the clinical site for at least 30 minutes following the first injection. The patient/caregiver administered subsequent injections outside of the clinic, according to the dosing schedule. On days where the clinic study visit coincided with dosing, the dose of study drug was administered after all study assessments have been performed and all laboratory samples collected.
# The dose of mAb316P was increased, in a blinded manner, from 75 mg to 150 mg SC Q2W, starting at week 12, based on baseline CV risk in the following circumstances:
# The primary efficacy endpoint was the percent change in calculated LDL-C from baseline to week 24, which is defined as: 100× (calculated LDL-C value at week 24−calculated LDL-C value at baseline)/calculated LDL-C value at baseline. The baseline calculated LDL-C value was the last LDL-C level obtained before the first double-blind study drug injection. The calculated LDL-C at week 24 will be the LDL-C level obtained within the week 24 analysis window and during the main efficacy period. The main efficacy period was defined as the time from the first double-blind study drug injection up to 21 days after the last double-blind study drug injection or up to the upper limit of the week 24 analysis window, whichever comes first.
# Total-C, HDL-C, TG, ApoB, ApoA-1, and Lp (a) were directly measured by a central laboratory. […]
# [1] = ITT Population, Comparison 4: mAb316P + atorva 40 mg arm vs. rosuva 40 mg arm
# [2] = ITT Population, Comparison 5: mAb316P + atorva 40 mg arm vs. EZE + atorva 40 mg arm
# [3] = mITT Population, Comparison 1: mAb316P + atorva 20 mg arm vs. atorva 40 mg arm
# [4] = mITT Population, Comparison 2: mAb316P + atorva 20 mg arm vs. EZE + atorva 20 mg arm
# [5] = mITT Population, Comparison 3: mAb316P + atorva 40 mg arm vs. atorva 80 mg arm
# [6] = mITT Population, Comparison 4: mAb316P + atorva 40 mg arm vs. rosuva 40 mg arm
# [7] = mITT Population, Comparison 5: mAb316P + atorva 40 mg arm vs. EZE + atorva 40 mg arm
substance,measurement,setting,value
"mAb316P: human anti-PCSK9 antibody; heavy chain SEQ ID NO:5, light chain SEQ ID NO:9","Delta, percent change from baseline of non-HDL-C to week 24",[1],−30.2%
same,"Odds Ratio, proportion of patients reaching calculated LDL-C < 70 mg/dL at Week 24",[1],13.2
same,"Odds Ratio, proportion of very high CV risk patients reaching calculated LDL-C < 70 mg/dL or high CV risk patients reaching calculated LDL-C < 100 mg/dL at Week 24",[1],6.1
same,"Delta, percent change from baseline of Apo B to week 24",[2],−27.6%
same,"Delta, percent change from baseline of Apo-B to week 12",[2],−15.9%
same,"Delta, percent change from baseline of HDL-C to week 24",[2],5.6%
same,"Delta, percent change from baseline of Lp(a) to week 24",[2],−31.0%
same,"Delta, percent change from baseline of Non-HDL-C to week 12",[2],−14.8%
same,"Delta, percent change from baseline of Total-C to week 12",[2],−9.8%
same,"Delta, percent change from baseline of Total-C to week 24",[2],−18.4%
same,"Delta, percent change from baseline of calculated LDL-C to week 12",[2],−20.9%
same,"Delta, percent change from baseline of calculated LDL-C to week 24",[2],−31.4%
same,"Delta, percent change from baseline of non-HDL-C to week 24",[2],−26.6%
same,"Odds Ratio, proportion of patients reaching calculated LDL-C < 70 mg/dL at Week 24",[2],9.9
same,"Odds Ratio, proportion of very high CV risk patients reaching calculated LDL-C < 70 mg/dL or high CV risk patients reaching calculated LDL-C < 100 mg/dL at Week 24",[2],7.9
same,patients achieving the more stringent LDL-C goal of <70 mg/dL,"Week 24, calculated LDL-C, across atorvastatin 20 mg and 40 mg regimens",77-79%
same,reduced LDL-C levels by,"atorvastatin 20 mg regimen, add-on ezetimibe or doubling of atorvastatin dose",44.1%
same,reduced LDL-C levels by,"atorvastatin 40 mg regimen, add-on ezetimibe, doubling of atorvastatin dose or switch to rosuvastatin 40 mg",54.0%
same,"Delta, percent change from baseline of Apo B to week 24",[3],−32.6%
same,"Delta, percent change from baseline of calculated LDL-C to week 12",[3],−44.5%
same,"Delta, percent change from baseline of calculated LDL-C to week 24",[3],−42.5%
same,"Delta, percent change from baseline of non-HDL-C to week 24",[3],−33.0%
same,"Odds Ratio, proportion of patients reaching calculated LDL-C < 70 mg/dL at Week 24",[3],28.8
same,"Odds Ratio, proportion of very high CV risk patients reaching calculated LDL-C < 70 mg/dL or high CV risk patients reaching calculated LDL-C < 100 mg/dL at Week 24",[3],24.6
same,"Delta, percent change from baseline of Apo B to week 24",[4],−25.1%
same,"Delta, percent change from baseline of calculated LDL-C to week 12",[4],−26.6%
same,"Delta, percent change from baseline of calculated LDL-C to week 24",[4],−24.9%
same,"Delta, percent change from baseline of non-HDL-C to week 24",[4],−22.4%
same,"Odds Ratio, proportion of patients reaching calculated LDL-C < 70 mg/dL at Week 24",[4],4.8
same,"Odds Ratio, proportion of very high CV risk patients reaching calculated LDL-C < 70 mg/dL or high CV risk patients reaching calculated LDL-C < 100 mg/dL at Week 24",[4],5.0
same,"Delta, percent change from baseline of Apo B to week 24",[5],−38.3%
same,"Delta, percent change from baseline of calculated LDL-C to week 12",[5],−36.3%
same,"Delta, percent change from baseline of calculated LDL-C to week 24",[5],−52.8%
same,"Delta, percent change from baseline of non-HDL-C to week 24",[5],−43.6%
same,"Odds Ratio, proportion of patients reaching calculated LDL-C < 70 mg/dL at Week 24",[5],162.1
same,"Odds Ratio, proportion of very high CV risk patients reaching calculated LDL-C < 70 mg/dL or high CV risk patients reaching calculated LDL-C < 100 mg/dL at Week 24",[5],130.8
same,"Delta, percent change from baseline of Apo B to week 24",[6],−29.8%
same,"Delta, percent change from baseline of calculated LDL-C to week 12",[6],−27.7%
same,"Delta, percent change from baseline of calculated LDL-C to week 24",[6],−35.0%
same,"Delta, percent change from baseline of non-HDL-C to week 24",[6],−32.1%
same,"Odds Ratio, proportion of patients reaching calculated LDL-C < 70 mg/dL at Week 24",[6],19.8
same,"Odds Ratio, proportion of very high CV risk patients reaching calculated LDL-C < 70 mg/dL or high CV risk patients reaching calculated LDL-C < 100 mg/dL at Week 24",[6],8.5
same,"Delta, percent change from baseline of Apo B to week 24",[7],−26.4%
same,"Delta, percent change from baseline of calculated LDL-C to week 12",[7],−20.2%
same,"Delta, percent change from baseline of calculated LDL-C to week 24",[7],−33.4%
same,"Delta, percent change from baseline of non-HDL-C to week 24",[7],−27.3%
same,"Odds Ratio, proportion of patients reaching calculated LDL-C < 70 mg/dL at Week 24",[7],13.9
same,"Odds Ratio, proportion of very high CV risk patients reaching calculated LDL-C < 70 mg/dL or high CV risk patients reaching calculated LDL-C < 100 mg/dL at Week 24",[7],10.8
